This note sets out measurements from publication PMC7487798, “Glutaredoxin 1 Deficiency Leads to Microneme Protein-Mediated Growth Defects in Neospora caninum” (Frontiers in Microbiology, 2020).

The target in the assay is T1, NcGrx1 (rNcGrx1) (Neospora caninum, UniProt F0VCE0).
T1 construct: gene NCLIV_038390; recombinant NcGrx1; dithiol CPYC active site
Put plainly: HED assay, coupled to glutathione reductase, NADPH consumption at […] nm. The class given is biochemical. Particulars: 0.05-2 mM HED, 600 nM enzyme, 1 mM GSH, 200 μM NADPH, 100 mM potassium phosphate, 1 mM EDTA, pH 7.0, 25 °C; HED preincubated 3 min with GSH to form the mixed disulfide.

T1 sequence (F0VCE0 entry or part of it): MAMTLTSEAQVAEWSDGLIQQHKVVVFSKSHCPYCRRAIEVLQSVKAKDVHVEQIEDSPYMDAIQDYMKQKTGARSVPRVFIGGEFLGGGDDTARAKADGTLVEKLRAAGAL

Take `OCCSSCCO` [β-hydroxyethyl disulfide]: the Km turned out to be 208 ± 23.9 µM.

Broadly, the Km is the substrate concentration at which the rate is half of its maximum.
